{"source": "paper PMC6943558", "about": "“Covalent Inhibition of the Histamine H3 Receptor” (Molecules, 2019)", "key": {"[1]": {"target": "T1, hH3R (human histamine H3 receptor) (Homo sapiens, UniProt Q9Y5N1)", "T1 construct": "gene HRH3; transiently transfected cDNA, HEK293T cell homogenates", "T1 sequence (Q9Y5N1 whole entry)": "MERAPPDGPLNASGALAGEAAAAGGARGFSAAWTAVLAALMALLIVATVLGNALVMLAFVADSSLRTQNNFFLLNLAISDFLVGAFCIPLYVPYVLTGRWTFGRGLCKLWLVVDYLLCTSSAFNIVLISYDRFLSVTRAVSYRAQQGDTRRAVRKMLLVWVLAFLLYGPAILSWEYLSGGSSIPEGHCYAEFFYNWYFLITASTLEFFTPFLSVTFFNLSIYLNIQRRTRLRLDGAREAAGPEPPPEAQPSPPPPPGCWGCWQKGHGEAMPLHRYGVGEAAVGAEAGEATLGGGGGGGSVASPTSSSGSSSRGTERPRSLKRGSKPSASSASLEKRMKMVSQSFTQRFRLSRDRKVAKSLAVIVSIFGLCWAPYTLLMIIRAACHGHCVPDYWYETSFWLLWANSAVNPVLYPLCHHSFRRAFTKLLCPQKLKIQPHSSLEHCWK", "experiment": "[3H]NAMH displacement, cell homogenates", "type": "biochemical"}, "[2]": {"target": "T2, Nanoluc-H4R (histamine H4 receptor) (Homo sapiens, UniProt Q9H3N8)", "T2 construct": "gene HRH4; NanoLuc reporter fusion (Nluc-H4R); details not in the main text", "T2 sequence (Q9H3N8 whole entry, the tested form may be a part)": "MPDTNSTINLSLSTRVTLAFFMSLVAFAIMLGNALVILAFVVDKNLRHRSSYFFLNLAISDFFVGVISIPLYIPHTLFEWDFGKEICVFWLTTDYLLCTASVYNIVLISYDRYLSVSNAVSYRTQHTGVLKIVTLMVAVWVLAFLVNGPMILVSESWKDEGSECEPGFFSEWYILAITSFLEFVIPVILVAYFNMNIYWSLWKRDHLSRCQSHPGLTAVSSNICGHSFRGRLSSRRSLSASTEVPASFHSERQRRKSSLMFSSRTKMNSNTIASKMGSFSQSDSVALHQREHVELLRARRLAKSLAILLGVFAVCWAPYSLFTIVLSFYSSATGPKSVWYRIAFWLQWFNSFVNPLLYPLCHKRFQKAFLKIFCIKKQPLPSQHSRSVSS", "experiment": "NanoBRET displacement of clobenpropit-BODIPY", "type": "cell-based", "settings": "fluorescent tracer clobenpropit-BODIPY"}, "[3]": {"target": "T1, hH3R (human histamine H3 receptor)", "experiment": "[…]GTPγS binding, cell homogenates", "type": "biochemical"}, "[4]": {"target": "T1, hH3R (human histamine H3 receptor)", "experiment": "[…]GTPγS binding, cell homogenates", "type": "biochemical", "remark": "listed apart in the source"}}, "note": "Where two headings read alike, the source gives them in different places.", "data": [{"molecule": "C=Cc1nc(-c2ccccc2)cc(N2CCN(C)CC2)n1", "note": "[compound 1, VUF14480]", "values": [{"measurement": "Ki", "setting": "[1]; read-out: pKi (converted)", "result": "> 10000", "unit": "nM"}]}, {"molecule": "Cc1nc(-c2ccccc2)cc(N2CCN(C)CC2)n1", "note": "[compound 2, 2]", "values": [{"measurement": "Ki", "setting": "[1]; read-out: pKi (converted)", "result": 79.4, "unit": "nM"}]}, {"molecule": "CC(C)c1cc(N2CC(N(C)C)C2)nc(N)n1", "note": "[compound 10, 10]", "values": [{"measurement": "Ki", "setting": "[1]; read-out: pKi (converted)", "result": 50.1, "unit": "nM"}]}, {"molecule": "CC(C)c1cc(N2CCN(C3CCC3)CC2)nc(N)n1", "note": "[compound 11, 11]", "values": [{"measurement": "Ki", "setting": "[1]; read-out: pKi (converted)", "result": 200, "unit": "nM"}]}, {"molecule": "Cc1cc(N2CCN(C3CCC3)CC2)nc(N)n1", "note": "[compound 12, 12]", "values": [{"measurement": "Ki", "setting": "[1]; read-out: pKi (converted)", "result": 316, "unit": "nM"}]}, {"molecule": "C#Cc1nc(C)cc(N2CCN(C3CCC3)CC2)n1", "note": "[compound 20, 20]", "values": [{"measurement": "Ki", "setting": "[1]; read-out: pKi (converted)", "result": "> 10000", "unit": "nM"}]}, {"molecule": "C=Cc1nc(C(C)C)cc(N2CC(N(C)C)C2)n1", "note": "[compound 21, 21]", "values": [{"measurement": "Ki", "setting": "[1]; read-out: pKi (converted)", "result": "> 10000", "unit": "nM"}]}, {"molecule": "C=Cc1nc(C(C)C)cc(N2CCN(C3CCC3)CC2)n1", "note": "[compound 22, 22]", "values": [{"measurement": "Ki", "setting": "[1]; read-out: pKi (converted)", "result": 3160, "unit": "nM"}]}, {"molecule": "C=Cc1nc(C)cc(N2CCN(C3CCC3)CC2)n1", "note": "[compound 23, 23]", "values": [{"measurement": "Ki", "setting": "[1]; read-out: pKi (converted)", "result": 3980, "unit": "nM"}]}, {"molecule": "Cc1nc(C(C)C)cc(N2CC(N(C)C)C2)n1", "note": "[compound 34, 34]", "values": [{"measurement": "Ki", "setting": "[1]; read-out: pKi (converted)", "result": "> 10000", "unit": "nM"}]}, {"molecule": "CCc1nc(C(C)C)cc(N2CC(N(C)C)C2)n1", "note": "[compound 35, 35]", "values": [{"measurement": "Ki", "setting": "[1]; read-out: pKi (converted)", "result": "> 10000", "unit": "nM"}]}, {"molecule": "Cc1nc(C(C)C)cc(N2CCN(C3CCC3)CC2)n1", "note": "[compound 36, 36]", "values": [{"measurement": "Ki", "setting": "[1]; read-out: pKi (converted)", "result": 1260, "unit": "nM"}]}, {"molecule": "CCc1nc(C(C)C)cc(N2CCN(C3CCC3)CC2)n1", "note": "[compound 37, 37]", "values": [{"measurement": "Ki", "setting": "[1]; read-out: pKi (converted)", "result": 3160, "unit": "nM"}]}, {"molecule": "Nc1cccc(N2CCN(C3CCC3)CC2)c1", "note": "[compound 42, 3-(4-Cyclobutylpiperazin-1-yl)aniline]", "values": [{"measurement": "Ki", "setting": "[1]; read-out: pKi (converted)", "result": 1260, "unit": "nM"}, {"measurement": "no tracer displacement up to 10 μM", "setting": "[2]", "result": "> 10", "unit": "µM"}]}, {"molecule": "O=C(CCl)Nc1cccc(N2CCN(C3CCC3)CC2)c1", "note": "[compound 43, 43]", "values": [{"measurement": "Ki", "setting": "[1]; read-out: pKi (converted)", "result": 631, "unit": "nM"}]}, {"molecule": "S=C=Nc1cccc(N2CCN(C3CCC3)CC2)c1", "note": "[compound 44, 1-Cyclobutyl-4-(3-isothiocyanatophenyl)piperazine]", "values": [{"measurement": "EC50", "setting": "[3]", "result": 79.4, "unit": "nM"}, {"measurement": "IC50", "setting": "[4]", "result": 794, "unit": "nM"}, {"measurement": "Ki", "setting": "[1]; read-out: pKi (converted)", "result": 316, "unit": "nM"}, {"measurement": "no tracer displacement up to 10 μM", "setting": "[2]", "result": "> 10", "unit": "µM"}]}, {"molecule": "NCCc1c[nH]cn1", "note": "[histamine]", "values": [{"measurement": "Ki", "setting": "[1]; 50 mM Tris-HCl pH 7.4, 25 °C, vehicle-pretreated homogenates", "result": "Radioligand displacement curves of [^3H]NAMH with histamine on cell homogenates"}]}]}
